Experiments:
p21 = experiment: Immunostaining of senescence marker p21 in cardiac sections of doxorubicin-treated mice; assay type: in vivo; conditions: DOX cumulative 20 mg/kg over 4 weeks; vs saline; FIGS. 2A-2B
Procedure: Immunohistochemistry of p21: On the day of euthanasia, left ventricles were briefly rinsed with PBS and fixed for 16-24 h in a 4% formaldehyde solution (F8775, Sigma, diluted in PBS, pH=7.4). After fixation, tissues were transferred to 70% ethanol until inclusion in paraffin. Paraffin-embedded tissue were cut to 2-3 μm sections, air dried and let to dry completely at 60° C. overnight. Cell Conditioning 1 buffer (64/457,5001, Roche) was used for antigen retrieval, and casein (ref: 760-219, Roche) was used as blocking agent. The antibody directed against p21 (clone HUGO 291H/B5, CNIO) was diluted 1:50 in EnVision FLEX Antibody Diluent (K800621, Dako-Agilent). Staining was performed on the Ventana discovery XT platform for 60 minutes (ready-to-use). […] The specificity of the staining was assessed in each organ by using rat IgG isotype control (6-001-F, R&D Systems) as primary antibody.
Quantification of the p21 staining was done on the QuPath analysis software after blinding the samples names. […] Non-cardiomyocytes regions were excluded from the area of analysis and, after color deconvolution, a threshold was applied to automatically quantify the p21+ cardiomyocytes area. The average value in the 10 regions of interest was plotted for each animal, and analyzed by two-way ANOVA to determine the effect of doxorubicin treatment, ACBP/DBI neutralization, and their interaction.

[1] = tested on: doxorubicin (DOX)-treated C57Bl/6J female mice; experiment: Anthracycline (doxorubicin)-induced cardiotoxicity model, echocardiography and organ weights; assay type: in vivo; conditions: chronic DOX, cumulative dose 20 mg/kg body weight IP over 4 weeks, vs saline
Procedure: Cardiac toxicity experiments: Eight-week-old C57Bl/6J female mice were purchased from Envigo (Gannat, France). Following 2 weeks of acclimatization, mice were randomized (1:1) to receive either mouse monoclonal anti-ACBP-neutralizing antibody (5 mg/kg body weight, injected intraperitoneally once per week) or mouse isotype IgG (negative control; 5 mg/kg body weight). Each group was further randomized (1:1) to receive a weekly intraperitoneal injection of saline or doxorubicin (5 mg/kg body weight; cumulative dose of 20 mg/kg body weight over 4 weeks) (Sigma, #MKCM8540). Of note, anti-ACBP was always administered 24 hours prior to doxorubicin injection. All mice used in this study were housed in a temperature-controlled environment with 12 h light/dark cycles and ad libitum access to food and water.
Echocardiography. Mice were lightly anesthetized (5% for induction; 1.5% isoflurane for maintenance) and body temperature was kept at 37° C. using a temperature-controlled heating platform. […] Ejection fraction was determined to assess systolic function, while diastolic function was evaluated using the ratio between peak early-filling velocity of transmitral flow (E) and the corresponding mitral valve annulus velocity (e′) determined using pulsed-wave and tissue Doppler imaging, respectively. […]

p21 staining in cardiomyocytes (p21): increased the presence of p21 staining
Structure (SMILES): COc1cccc2c1C(=O)c1c(O)c3c(c(O)c1C2=O)C[C@@](O)(C(=O)CO)C[C@@H]3O[C@H]1C[C@H](N)[C@H](O)[C@H](C)O1 [DOX, doxorubicin]
left ventricular ejection fraction ([1]; FIG. 1B): clearly reduced | ventricular dilation ([1]; FIG. 1C): causing ventricular dilation
